Tested on: moderate-to-severe chronic spontaneous urticaria (CSU)
Test: Phase 2 CSU study: itch severity score over 7 days (ISS7)
Type: in vivo, human
Settings: Omalizumab-Naïve Population
Source text: The study comprises a 12 week, randomized, double-blind, placebo-controlled, multi-center, dose-ranging efficacy and safety phase, followed by a 40 week open label extension (OLE) phase (see FIG. 1). The study consists of three phases and an optional OLE phase. […] Clinically, CSU is characterized by the spontaneous and recurrent appearance of pruritic hives. The proposed primary endpoints were the UAS7 at Week 12 in EU and EU reference countries and the ISS7 in the US. Regardless of where a participant was from, all assessments were the same. The UAS7 score is a composite score containing both the HSS7 and the ISS7. This allowed a global assessment of the two key components of urticaria: hives and itch. […] The UAS is a validated PRO measure. […] The daily UAS scores range from 0 to 6 point/day. […] Patients were to complete the UAS using the e-diary. […] The following secondary endpoints were to be analyzed using the same approach as for the primary endpoint: • Change from baseline in UAS7 at Week 4 • Change from baseline in UAS7 at Week 12 (for US and US reference countries) • Change from baseline in ISS7 at Week 12 (except US and US reference countries) • Change from baseline in HSS7 at Week 12

## CC(C)(C=C(C#N)C(=O)N1CCC[C@@H](n2nc(-c3ccc(Oc4ccccc4)cc3F)c3c(N)ncnc32)C1)N1CCN(C2COC2)CC1 [rilzabrutinib, (R)-2-[3-[4-amino-3-(2-fluoro-4-phenoxy-phenyl)pyrazolo[3,4-d]pyrimidin-1-yl]piperidine-1-carbonyl]-4-methyl-4-[4-(oxetan-3-yl)piperazin-1-yl]pent-2-enenitrile]
400 mg BID, Week 3
  Imputed non-responder n (%) (ISS7 reduction of 5 points or more): 0 n (%)
  Non-responder n (%) (ISS7 reduction of 5 points or more): 17 (48.6) n (%)
  OR for rilzabrutinib vs. placebo (ISS7 reduction of 5 points or more): 2.418
  RRD (%) for rilzabrutinib vs. placebo (ISS7 reduction of 5 points or more): 21.1%
  Responder n (%) (ISS7 reduction of 5 points or more): 18 (51.4) n (%)
400 mg BID, Week 4
  Imputed non-responder n (%) (ISS7 reduction of 5 points or more): 2 (5.7) n (%)
  Non-responder n (%) (ISS7 reduction of 5 points or more): 17 (48.6) n (%)
  OR for rilzabrutinib vs. placebo (ISS7 reduction of 5 points or more): 1.476
  Responder n (%) (ISS7 reduction of 5 points or more): 18 (51.4) n (%)
400 mg BID, Week 5
  Imputed non-responder n (%) (ISS7 reduction of 5 points or more): 2 (5.7) n (%)
  Non-responder n (%) (ISS7 reduction of 5 points or more): 15 (42.9) n (%)
  OR for rilzabrutinib vs. placebo (ISS7 reduction of 5 points or more): 1.334
  RRD (%) for rilzabrutinib vs. placebo (ISS7 reduction of 5 points or more): 7.3%
  Responder n (%) (ISS7 reduction of 5 points or more): 20 (57.1) n (%)
400 mg BID, Week 6
  Imputed non-responder n (%) (ISS7 reduction of 5 points or more): 2 (5.7) n (%)
  Non-responder n (%) (ISS7 reduction of 5 points or more): 17 (48.6) n (%)
  OR for rilzabrutinib vs. placebo (ISS7 reduction of 5 points or more): 1.326
  RRD (%) for rilzabrutinib vs. placebo (ISS7 reduction of 5 points or more): 7.1%
  Responder n (%) (ISS7 reduction of 5 points or more): 18 (51.4) n (%)
400 mg BID, Week 7
  Imputed non-responder n (%) (ISS7 reduction of 5 points or more): 2 (5.7) n (%)
  Non-responder n (%) (ISS7 reduction of 5 points or more): 16 (45.7) n (%)
  OR for rilzabrutinib vs. placebo (ISS7 reduction of 5 points or more): 1.533
  Responder n (%) (ISS7 reduction of 5 points or more): 19 (54.3) n (%)
400 mg BID, Week 8
  Imputed non-responder n (%) (ISS7 reduction of 5 points or more): 3 (8.6) n (%)
  Non-responder n (%) (ISS7 reduction of 5 points or more): 13 (37.1) n (%)
  OR for rilzabrutinib vs. placebo (ISS7 reduction of 5 points or more): 1.690
  RRD (%) for rilzabrutinib vs. placebo (ISS7 reduction of 5 points or more): 13.7%
  Responder n (%) (ISS7 reduction of 5 points or more): 22 (62.9) n (%)
400 mg BID, Week 9
  Imputed non-responder n (%) (ISS7 reduction of 5 points or more): 7 (20.0) n (%)
  Non-responder n (%) (ISS7 reduction of 5 points or more): 16 (45.7) n (%)
  OR for rilzabrutinib vs. placebo (ISS7 reduction of 5 points or more): 1.462
  Responder n (%) (ISS7 reduction of 5 points or more): 19 (54.3) n (%)
400 mg BID, Week 10
  Imputed non-responder n (%) (ISS7 reduction of 5 points or more): 8 (22.9) n (%)
  Non-responder n (%) (ISS7 reduction of 5 points or more): 19 (54.3) n (%)
  OR for rilzabrutinib vs. placebo (ISS7 reduction of 5 points or more): 0.883
  RRD (%) for rilzabrutinib vs. placebo (ISS7 reduction of 5 points or more): −3.1%
  Responder n (%) (ISS7 reduction of 5 points or more): 16 (45.7) n (%)
400 mg BID, Week 11
  Imputed non-responder n (%) (ISS7 reduction of 5 points or more): 7 (20.0) n (%)
  Non-responder n (%) (ISS7 reduction of 5 points or more): 16 (45.7) n (%)
  OR for rilzabrutinib vs. placebo (ISS7 reduction of 5 points or more): 0.963
  RRD (%) for rilzabrutinib vs. placebo (ISS7 reduction of 5 points or more): −1.0%
  Responder n (%) (ISS7 reduction of 5 points or more): 19 (54.3) n (%)
400 mg BID, Week 12
  Imputed non-responder n (%) (ISS7 reduction of 5 points or more): 11 (31.4) n (%)
  Non-responder n (%) (ISS7 reduction of 5 points or more): 18 (51.4) n (%)
  OR for rilzabrutinib vs. placebo (ISS7 reduction of 5 points or more): 1.095
  RRD (%) for rilzabrutinib vs. placebo (ISS7 reduction of 5 points or more): 2.4%
  Responder n (%) (ISS7 reduction of 5 points or more): 17 (48.6) n (%)
400 mg QPM, Week 1
  Imputed non-responder n (%) (ISS7 reduction of 5 points or more): 0 n (%)
  Non-responder n (%) (ISS7 reduction of 5 points or more): 25 (67.6) n (%)
  OR for rilzabrutinib vs. placebo (ISS7 reduction of 5 points or more): 1.691
  Responder n (%) (ISS7 reduction of 5 points or more): 12 (32.4) n (%)
400 mg QPM, Week 2
  Imputed non-responder n (%) (ISS7 reduction of 5 points or more): 0 n (%)
  Non-responder n (%) (ISS7 reduction of 5 points or more): 23 (62.2) n (%)
  OR for rilzabrutinib vs. placebo (ISS7 reduction of 5 points or more): 1.637
  Responder n (%) (ISS7 reduction of 5 points or more): 14 (37.8) n (%)
400 mg QPM, Week 3
  Imputed non-responder n (%) (ISS7 reduction of 5 points or more): 0 n (%)
  Non-responder n (%) (ISS7 reduction of 5 points or more): 20 (54.1) n (%)
  OR for rilzabrutinib vs. placebo (ISS7 reduction of 5 points or more): 1.910
  RRD (%) for rilzabrutinib vs. placebo (ISS7 reduction of 5 points or more): 16.0%
  Responder n (%) (ISS7 reduction of 5 points or more): 17 (45.9) n (%)
400 mg QPM, Week 4
  Imputed non-responder n (%) (ISS7 reduction of 5 points or more): 1 (2.7) n (%)
  Non-responder n (%) (ISS7 reduction of 5 points or more): 20 (54.1) n (%)
  OR for rilzabrutinib vs. placebo (ISS7 reduction of 5 points or more): 1.231
  RRD (%) for rilzabrutinib vs. placebo (ISS7 reduction of 5 points or more): 5.0%
  Responder n (%) (ISS7 reduction of 5 points or more): 17 (45.9) n (%)
400 mg QPM, Week 5
  Imputed non-responder n (%) (ISS7 reduction of 5 points or more): 2 (5.4) n (%)
  Non-responder n (%) (ISS7 reduction of 5 points or more): 21 (56.8) n (%)
  OR for rilzabrutinib vs. placebo (ISS7 reduction of 5 points or more): 0.787
  RRD (%) for rilzabrutinib vs. placebo (ISS7 reduction of 5 points or more): −6.3%
  Responder n (%) (ISS7 reduction of 5 points or more): 16 (43.2) n (%)
400 mg QPM, Week 6
  Imputed non-responder n (%) (ISS7 reduction of 5 points or more): 4 (10.8) n (%)
  Non-responder n (%) (ISS7 reduction of 5 points or more): 20 (54.1) n (%)
  OR for rilzabrutinib vs. placebo (ISS7 reduction of 5 points or more): 1.088
  RRD (%) for rilzabrutinib vs. placebo (ISS7 reduction of 5 points or more): 2.0%
  Responder n (%) (ISS7 reduction of 5 points or more): 17 (45.9) n (%)
400 mg QPM, Week 7
  Imputed non-responder n (%) (ISS7 reduction of 5 points or more): 6 (16.2) n (%)
  Non-responder n (%) (ISS7 reduction of 5 points or more): 19 (51.4) n (%)
  OR for rilzabrutinib vs. placebo (ISS7 reduction of 5 points or more): 1.176
  RRD (%) for rilzabrutinib vs. placebo (ISS7 reduction of 5 points or more): 4.0%
  Responder n (%) (ISS7 reduction of 5 points or more): 18 (48.6) n (%)
400 mg QPM, Week 8
  Imputed non-responder n (%) (ISS7 reduction of 5 points or more): 7 (18.9) n (%)
  Non-responder n (%) (ISS7 reduction of 5 points or more): 20 (54.1) n (%)
  OR for rilzabrutinib vs. placebo (ISS7 reduction of 5 points or more): 0.843
  RRD (%) for rilzabrutinib vs. placebo (ISS7 reduction of 5 points or more): −4.4%
  Responder n (%) (ISS7 reduction of 5 points or more): 17 (45.9) n (%)
400 mg QPM, Week 9
  Imputed non-responder n (%) (ISS7 reduction of 5 points or more): 6 (16.2) n (%)
  Non-responder n (%) (ISS7 reduction of 5 points or more): 18 (48.6) n (%)
  OR for rilzabrutinib vs. placebo (ISS7 reduction of 5 points or more): 1.328
  RRD (%) for rilzabrutinib vs. placebo (ISS7 reduction of 5 points or more): 6.5%
  Responder n (%) (ISS7 reduction of 5 points or more): 19 (51.4) n (%)
400 mg QPM, Week 10
  Imputed non-responder n (%) (ISS7 reduction of 5 points or more): 6 (16.2) n (%)
